These results are taken from article PMC6410202, “Dual Action of the PN159/KLAL/MAP Peptide: Increase of Drug Penetration across Caco-2 Intestinal Barrier Model by Modulation of Tight Junctions and Plasma Membrane Permeability” (Pharmaceutics, 2019).

Data set [1] deals with Enterococcus faecium (ATCC 700221). In words: MIC, serial broth dilution. In kind it is cell-based. Conditions: ATCC700221, Brain-Heart-Infusion broth, 18 h, vancomycin resistant strain. As for the experimental part:
(§1) The MIC of PN159 on the 6 sensitive and resistant ESKAPE pathogenic strains was determined in cation-adjusted Muller–Hinton broth. […] Minimum inhibitory concentrations (MICs) were determined by using a standard serial broth dilution technique. Briefly, 11-step serial dilutions were prepared in 96-well microtiter plates with three biological replicates per strain. Pathogens were inoculated into each well at a density of 5×10^5 bacteria/mL, and the plates were incubated at 37 °C. Plates were shaken at 300 rpm during incubation for 18 h. Cell growth was monitored by measuring the optical density (OD600 value, Synergy 2 microplate reader BioTek Instruments Inc, Winooski, VT, USA). […] As reference compounds we tested the antimicrobial activity of three bactericidal drugs with different modes of action.
On the technique in general: In broth dilution the organism is exposed to a series of concentrations in liquid medium.

Data set [2] deals with Staphylococcus aureus (ATCC 29213). In words: MIC, serial broth dilution. In kind it is cell-based. To be noted: ATCC29213, Muller–Hinton broth, 18 h. As for the experimental part:
as §1

Data set [3] deals with Klebsiella pneumoniae (ATCC 10031). In words: MIC, serial broth dilution. The class given is cell-based. To be noted: ATCC10031, Muller–Hinton broth, 18 h. As to the method:
as §1

Data set [4] has as its system Acinetobacter baumannii (ATCC 17978). In words: MIC, serial broth dilution. In kind it is cell-based. Conditions: ATCC17978, Muller–Hinton broth, 18 h. As to the method:
as §1

For data set [5], the system named is Enterobacter cloacae spp. cloacae (ATCC 13047). In words: microbe, parasite or virus in culture. Conditions: Enterobacter cloacae, ATCC13047, 18 h. As for the experimental part: as §1
Data set [6] deals with Pseudomonas aeruginosa (ATCC 27853). In words: microbe, parasite or virus in culture. Conditions: Pseudomonas aeruginosa, ATCC27853, 18 h. As for the experimental part:
as §1

Data set [7] concerns Caco-2 cells. In words: Impedance measurement (RTCA), Caco-2 cells. The class given is cell-based. To be noted: CPPs 100 μM, 24-h monitoring. As for the experimental part: Kinetics of epithelial cell reaction to PN159 peptide treatment was monitored by impedance measurement at 10 kHz (RTCA-SP instrument, ACEA Biosciences, San Diego, CA, USA). Impedance measurement is non-invasive, label-free and real time, and linearly correlates with adherence, growth, number and viability of cells. For background measurements 50 μL cell culture medium was added to the wells, then cells were seeded at a density of 6 × 10^3 cells/well to the coated 96-well plates with integrated gold electrodes (E-plate 96, ACEA Biosciences). Cells were cultured for 5–7 days in a CO2 incubator at 37 °C and monitored every 10 min until the end of experiments. Cells were treated with PN159 peptide solutions at 1, 3, 10, 30 and 100 μM concentrations at the beginning of the plateau phase of growth and the effects were followed for 1-h or 24 h. To measure cell recovery, peptide solutions were changed to culture medium and the impedance was monitored for one week. Culture medium was changed every 2 days. Caco-2 cells were also treated with the three selected CPPs, Pep-1, R8 and φ-peptide, at 100 μM concentrations at the beginning of the plateau phase of cell growth for 24-h. Triton X-100 detergent (1 mg/mL) was used as a reference compound to induce cell death. Cell index was defined as Rn-Rb at each time point of measurement, where Rn is the cell-electrode impedance of the well when it contains cells and Rb is the background impedance of the well with the medium alone.

A short description of data set [8]: in vitro. To be noted: human, Caco-2, Papp A-B. As for the experimental part: (§2) In the permeability experiments inserts with Caco-2 cell layers grown for 3 weeks were transferred to 12-well plates containing 1.5 mL Ringer–Hepes buffer in the lower (basal or acceptor) compartments. In the upper or apical compartments culture medium was replaced by 0.5 mL buffer containing peptide solutions: PN159 peptide at 1, 3, 10 and 30 μM concentrations and CPPs at 100 μM concentration. […] The incubation with permeability markers in the presence of PN159 peptide lasted for 30 min. In case of CPPs the incubation time with fluorescein was 1-h. Samples were collected from both compartments and the concentrations of the marker molecules were determined by a fluorescence multi-well plate reader (Fluostar Optima; excitation wavelength: 485 nm, emission wavelength: 535 nm in the case of fluorescein and excitation wavelength: 584 nm, emission wavelength: 680 nm in the case of Evans-blue labeled albumin). Fluorescein isothiocyanate (FITC)-labelled dextran marker molecules (Table 1) were used at 1 mM concentrations, and fluorescence intensities of collected samples were measured using a Fluorolog FL3-22 (Horiba Jobin Yvon, Paris, France) spectrofluorometer using 492 nm excitation wavelength, 515 nm emission wavelength, and 0.5 s integration time. Drugs were used at 10 μM concentrations and samples were measured by HPLC as described below. The apparent permeability coefficients (Papp) were calculated as described previously. Briefly, cleared volume was calculated from the concentration difference of the tracer in the basal compartments (Δ[C]B) after 30 min and apical compartments at 0 h ([C]A), the volume of the basal compartment (VB; 1.5 mL) and the surface area available for permeability (A; 1.1 cm^2).
(§3) Analytical measurements were performed on a Merck-Hitachi LaChrom HPLC system equipped with an ultraviolet (UV) and fluorescence detector (Merck, Darmstadt, Germany). All reagents used were of analytical reagent grade. […] In both cases 10μL sample was injected into the chromatographic system.
(§4) The chromatographic column was maintained at 40 °C and the 5 μL sample was injected onto the column.
(§5) The column temperature was maintained at 40 °C and a 20 μL sample was injected onto the chromatographic system. […] UV detection was set at 228 nm.

In data set [9] the test system is EpiAirway model. Conditions: airway epithelial tissue model, by PN159; cited from earlier work.
Data set [10] relates to Caco-2 cell layers. In words: Penetration of marker and drug molecules across Caco-2 cell layers (Papp A-B). Conditions: CPPs 100 μM, 1-h treatment. As to the method: as §2, §3, §4, §5
Data set [11] deals with Klebsiella pneumoniae. The arrangement: method as in PMID 27617798. Conditions: cited from earlier work.

As to `CO[C@@]1(NC(=O)Cc2cccs2)C(=O)N2C(C(=O)O)=C(COC(N)=O)CS[C@@H]21` [Cefoxitin, cefoxitin], the MIC in data set [1] was > 223 µM; in data set [2], 6.9 µM; in [3] it was 3.5 µM; in data set [4] it was 223 µM; in data set [5] it was > 223 µM; in data set [6], > 223 µM.
On to `CNC(C)C1CCC(N)C(OC2C(N)CC(N)C(OC3OCC(C)(O)C(NC)C3O)C2O)O1` (stereo not drawn) [Gentamicin, gentamicin], for which the MIC in [2] stood at 1.1 µM; in data set [3] it was 0.6 µM; in data set [4], 0.6 µM; in [5], 1.1 µM; in data set [6], 2.3 µM.
`N=C(N)NCCC[C@H](NC(=O)[C@H](CCCNC(=N)N)NC(=O)[C@H](CCCNC(=N)N)NC(=O)[C@H](CCCNC(=N)N)NC(=O)[C@H](CCCNC(=N)N)NC(=O)[C@H](CCCNC(=N)N)NC(=O)[C@H](CCCNC(=N)N)NC(=O)[C@@H](N)CCCNC(=N)N)C(N)=O` [R8]: the “Cell impedance (normalized cell index)” value in data set [7] is “decreased the cell impedance”.
Take `CN/C(=N/CCSCc1nc[nH]c1C)NC#N` [cimetidine]: the values for the Papp A→B at 30 min, 10 μM in data set [8] (PN159 treated) and in data set [8] (control) were 34.5 ± 4.5 ×10⁻⁶ cm/s and 0.9 ± 0.2 ×10⁻⁶ cm/s, respectively.
Regarding `COc1ccc2c3c1O[C@H]1C[C@@H](O)C=C[C@@]31CCN(C)C2` [galantamine], the Increase of permeability in data set [9] is 2 to 3 fold.
“cyclo[CGGFWRRRRGE(εAca)G] (cyclo(CGGFWRRRRGE)-{εAca-Gly}) [φ-peptide]”: the “Cell impedance (normalized cell index)” value in [7] is reported as “decreased the cell impedance”. Further, the “Permeability for fluorescein marker molecule” value in data set [10] is recorded as “elevated permeability”.
melittin: in [11], the “Concentration needed for inhibition of growth” value was “more than 100 µM”.
